In brackets after ≈: the same amount, converted by molar mass. Entries after “also recorded” stand apart in the source; their conditions may differ.
What was measured:
[1] = target: T1, PD-1/PD-L1 interaction (Homo sapiens, UniProt Q9NZQ7); assay: HTRF-based PD-1/PD-L1 binding assay
T1 construct: purchased Cisbio 64ICP01PEG

[2] = target: hPD-L1 (Homo sapiens, UniProt Q9NZQ7); assay: SPR binding affinity assay (Biacore T200)
Description: To provide definitive evidence of direct binding to PD-L1 with small-molecule inhibitors, an SPR-based binding assay was performed using Biacore T200 instrument, which facilitates measurement of the kinetic parameters of ligand–protein complex formation. In this determination, hPD-L1/Fc was loaded on a Series S Sensor Chip Protein A. A9 and A15, with similar bioactivities in HTRF assay, were gradually subjected to this assay, and their kinetic parameters and the binding affinities were determined with the aid of Biacore evaluation software.
SPR analysis was carried out according to the method described by a previous article. The kinetic analysis for the interaction of small molecules with hPD-L1 was performed on a Biacore T200 (GE Healthcare Bio-sciences, Uppsala, Sweden) using Series S Sensor Chip Protein A (GE Healthcare Bio-sciences, Uppsala, Sweden, catalog # 29139131-AA). Briefly, Fc-hPD-L1 (Acro Biosystems, Cambridge, MA, USA, catalog #PD1-H5258) was diluted using 1 × PBS-P^+ buffer (phosphate buffer 1×, GE Healthcare Bio-sciences, catalog # 28-9950-84, enriched with 0.05% surfactant P20) containing 5% DMSO (Sigma-Aldrich, St. Louis, MO, America, catalog # D4540) and captured as the ligand (i.e., the target of small molecules) on protein A chip surface following Biacore T200 build-in protocol for kinetic/affinity analysis at a concentration of 10 μg/mL. The contact time and flow rates were set as 120 s and 10 μL/min for the ligand capture. Each experiment was performed using a pair of flow cells, one with ligand captured and the other kept as reference. A concentration gradient of analytes was freshly prepared in 1× PBS-P^+ buffer with 5% DMSO with at least five concentrations, and the concentration range was optimized according to different analytes. Analytes could flow through both ligand-captured flow cells and reference flow cells at the same rate (30 μL/min) and contact time (90 s). Solvent correction was included to avoid the impact of DMSO on surface plasmon effect during binding analysis. Extra washing of the flow system using 50% DMSO in 1×PBS-P^+ buffer was allowed to control carry over effects. For the regeneration of surface after each cycle (one-time ligand capture and binding of analyte at a single concentration) was carried out using 10 mM glycine pH 1.5 (GE Healthcare Bio-sciences, Uppsala, Sweden, catalog #BR-1003-54) at a flow rate of 30 μL/min for 30 s. Kinetic analysis was performed at 25 °C. Maximum binding response (Rmax) and equilibrium dissociation […] (KD) values were calculated using Biacore T200 Evaluation software following the 1:1 binding model.

[3] = system: MDA-MB-231 cells; assay: MTT non-specific cytotoxicity assay, MDA-MB-231; assay type: cell-based
Description: (§1) Considering that the toxicity of the compound might strongly interfere with the assay if the tested compounds could block PD-1/PD-L1 interaction to activate T cells for killing tumors, we examined their cell toxicities of MDA-MB-231 and Jurkat T cells in MTT assay. […] Furthermore, Jurkat T cells were used to simulate primary T cells for investigating the immune toxicity of the treated compounds with the regular concentrations within 48 h.
(§2) The MDA-MB-231 and Jurkat cell line was provided by the Chinese Academy of Sciences Cell Bank. The cytotoxicity of the test compounds was determined using the MTT assay. Briefly, MDA-MB-231 and Jurkat cells were incubated at 37 °C in a humidified 5% CO2 incubator for 24 h in 96-microwell plates. Then, 100 μL of culture medium containing the test compounds at different concentrations was added to each well and incubated at 37 °C for another 48 h. The MTT was added and incubated for another 4 h, and the optical density was detected with a microplate reader at 570 nm. The IC50 values were calculated according to the dose-dependent curves.

[4] = system: Jurkat T cells; assay: MTT non-specific cytotoxicity assay, Jurkat; assay type: cell-based
Description: as §1, §2

[5] = Water solubility by HPLC; assay type: physicochemical; conditions: aqueous buffer, thermodynamic from solid, pH 7.4, PBS
Description: The aqueous solubility was estimated by HPLC. The HPLC analysis was performed on a Shimadzu LC-20AT machine with a BDS Hypersil C18 column, and the column temperature was at 28 °C. Mobile phase B (100% MeOH) and mobile phase A (100% water) were used in a gradient elution program (0 min: 30% (B), 2 min: 50% (B), 8 min: 95% (B), 14 min: 95% (B), 18 min: 70% (B), 20 min: 30% (B)) with a flow rate of 1.0 mL/min at […]. Methanol was used to configure an accurate compounds concentration to calculate the standard curve. The excess test compound was dissolved in PBS (KH2PO4 0.24 g + KCl 0.2 g + NaCl 8 g + Na2HPO4·12H2O 3.58 g + 1 L water) and then analyzed by HPLC.

[6] = system: Hep3B/OS-8/hPD-L1 and CD3+ T cells co-culture; assay: IFN-γ production in Hep3B/OS-8/hPD-L1 and CD3+ T cell co-culture assay

T1 sequence (Q9NZQ7 19-238 limits assumed): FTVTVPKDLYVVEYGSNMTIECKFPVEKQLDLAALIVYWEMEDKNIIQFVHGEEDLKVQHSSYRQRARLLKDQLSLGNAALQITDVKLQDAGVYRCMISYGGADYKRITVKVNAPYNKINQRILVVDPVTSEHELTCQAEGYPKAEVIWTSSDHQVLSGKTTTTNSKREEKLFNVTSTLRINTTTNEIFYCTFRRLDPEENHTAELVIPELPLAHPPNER
Chain of hPD-L1 (Q9NZQ7 19-238 limits assumed): as above

COc1nc(-c2cccc(-c3ccccc3F)c2C)ccc1CNCCC(N)=O [Compound A9, 3-(((6-(2′-Fluoro-2-methyl-[1,1′-biphenyl]-3-yl)-2-methoxypyridin-3-yl)methyl)amino)propenamide]
increase in activity as compared with A4 ([1]; HTRF IC50 ratio): more than 23 fold | IC50 ([1]; HTRF, two independent experiments): 0.00093 µM | LE ([1]; LE = −1.35 logIC50/Nheavy atoms (HTRF IC50)): 0.43 | LE ([2]; LE = -1.35log KD/Nheavy atoms (SPR KD)): 0.40 | KD compared with that of A15 ([2]; SPR KD ratio): 5 fold | kon ([2]; SPR association rate, read-out: Ka (M-1s-1) / Kon): 538000 M⁻¹ s⁻¹ | koff ([2]; SPR dissociation rate, read-out: Kd (s-1) / Koff): 0.00196 s⁻¹ | Kd ([2]; SPR, 25 °C, 1:1 binding model): 0.00364 µM | EC50 ([3]; Homo sapiens, MDA-MB-231, 48 h, read-out: EC50 (μM)/MDA-MB-231 Toxicity): 11.1 µM | direct killing of tumor cells ([3]; as shown in Table 3): do not directly kill tumor cells | EC50 ([4]; Homo sapiens, Jurkat, MTT, 48 h, read-out: EC50 (μM)/Jurkat Toxicity): 7.6 µM | immune toxicity in Jurkat T cells ([4]; regular concentrations within 48 h): lower cell toxicity | solubility [5]: 126 µg/mL (≈ 321 µM) | IFN-γ production / release ([6]; 72 h co-culture, ELISA, dose response): promote the dose-dependent release of IFN-γ; also recorded: significantly promote the production of IFN-γ in a dose-dependent manner; also recorded: potently induces the release of IFN-γ | promoting effect on IFN-γ production compared with BMS-202 ([6]; A9 at 5 μM): significantly higher than that of BMS-202 | promoting effect on IFN-γ production compared with Keytruda ([6]; A9 at 5 μM vs Keytruda at 5 μg/mL): comparable promoting effect on production of INF-γ; also recorded: comparable to that of Keytruda at 5 μg/mL

Source: article PMC8199613, “Discovery of Novel Small-Molecule Inhibitors of PD-1/PD-L1 Interaction via Structural Simplification Strategy” (Molecules, 2021)
